Consider 1 compound from patent US20100022600A1, “METHODS AND COMPOSITIONS FOR TREATING CENTRAL NERVOUS SYSTEM TUMORS” (priority 2006, published 2010).

One test has as its system MMP-9. As to the kind of experiment: MMP-9 expression in vivo (western blot, immunohistochemistry). Set-up: species or system rat. On the procedure: For western-blot analysis, tumor-containing hemispheres were homogenized in Tris-HCl [50 mM Tris-HCl pH8, 120 mM NaCl, 5 mM EDTA, 0.5% (v/v) NP-40, […] phenylmethylsulfonyl fluoride (PMSF)] and sonicated. Homogenates were collected by centrifugation (15 min 11000 g. 4° C.) and protein concentration in the supernatant was determined using the Bio-Rad Protein Assay (Biorad, Munich, Germany). Lysates (20-40 μg) were separated on a 7% (w/v) sodium dodecyl sulfate (SDS)-polyacrylamide gel under reducing conditions and transferred to a PVDF membrane (Millipore, Bedford, Mass., USA). Non-specific binding was blocked by incubation with 5% (w/v) skimmed milk in TBS for 2 h. Following incubation with the primary antibody overnight at 4° C. [rabbit anti-BAX 1:1000, rabbit anti-cleaved caspase-3 1:1000, mouse […] 1:1000, goat anti-MMP-9 1:1000 in TBS containing 0.1% (v/v) Tween 20] membranes were washed three times in TBS/Tween for 5 min and subsequently incubated for 120 min in TBS/Tween containing secondary peroxidase-conjugated antibody at room temperature (anti-rabbit 1:1000, anti-mouse 1:1000; anti-goat 1:1000 respectively). Signals were visualized by chemoluminescence (Pierce, Rockford, Ill., USA) and band intensities were quantified with NIH Image 1.62 software (Bethesda, Md., USA). Frozen brain sections were first blocked with 5% normal goat serum or normal horse serum in PBS and subsequently incubated with rabbit anti-Ki-67 antibody (1:200 dilution), mouse anti-CS-56 (1:100 dilution), goat anti-MMP-9 (1:100 dilution) or rabbit anti-cleaved caspase-3 antibody (1:200 dilution) at 4° C. overnight. Sections were washed extensively with PBS before incubation with secondary antibodies. Incubation was carried at room temperature for 1 h. After washing with PBS three times, stained slides were mounted with PBS/glycerol (1:1) and viewed under a fluorescent microscope (Leica, Germany).
(In western blotting, separated proteins are transferred to a membrane and probed.)

The test system of test [1] is C6 glioma cells injected in rat striata. Description: C6 rat glioma model, tumor volume and histology. The class given is in vivo. The note with it: for reduction of tumor volume compared to vehicle: 21 d. On the procedure:
Spraque-Dawley rats (Charles River Laboratories, Sulzfeld, Germany), weighting 200-250 g were used. Animals were housed in groups of two under standard conditions at a temperature of 22° C.±1 and a 12-h light-dark cycle with free access to food and water. Experiments were carried out in accordance with the declaration of Helsinki and were approved by the local ethical committee for animal experiments. Before implantation, 85-90% confluent C6 cells were trypsinized, rinsed with DMEM+10% fetal calf serum, and centrifuged at 1000 rpm for 4 min. The cell pellet was resuspended in DMEM and placed on ice. Concentration of viable cells was adjusted to 1×10^5 cells/1 μl of DMEM. Each rat was anesthetized and placed in a stereotactic frame (David Kopf Instruments, Tujunga, Calif., USA), a hole was drilled at AP 0.0, R -3.0 relative to bregma according to the stereotaxic atlas of […], 1963). Tumor cells were injected at a rate of 0.5 μl/s, using a 2 μl Hamilton (#2701) syringe (Reno, Nev., USA) with a 26 s-gauge needle mounted on a stereotactic holder at a depth of 5 mm. […] For intracerebral administration of pio/vehicle (DMSO), the tip of an Alzet-brain-infusion-kit (Cupertino, Calif., USA) was placed in a depth of 5 mm, connected to a 2ML4 Alzet osmotic pump (Cupertino, Calif., USA). Drug administration began 4 h after surgery. […] The pumps were filled with 20 μM pio solved in PBS or vehicle (DMSO, 0.1% final concentration) solved in PBS. Animals were randomly distributed in two groups, treated with pio filled pumps (n=26) or vehicle filled pumps (n=26). Thereafter skull was cleaned and the incision sutured. […] Control animals received Purina chow without additions. Rats were allowed free access to the chow. Tumors were allowed to grow and animals were weighed daily. […] Brains were serially sectioned at 10 μm using a cryostat (Leica, Jung CMI800, Germany). Sections for hematoxylin-eosin (HE)-staining were placed onto uncoated slides. Sections intended for use in immunoreactivity assays were placed onto coded slides (Fisher finest, premium; Houston, Tex., USA). Sections were routinely HE-stained for histomorphological assessment and measurement of tumor volume as well as immunohistochemically processed for Ki-67-, BAX, cleaved caspase-3-expression, MMP9, CS-56 and BrdU-incorporation. Images of HE-stained sections containing the tumor were captured with a SPOT model 1.3 camera (Diagnostic Instruments, Inc., Sterling Heights, Mich., USA) using a 1× objective and images processed using NIH Image 1.62 software (Bethesda, Md., USA). The tumor area of each section was manually outlined by a blinded observer using the freehand selection tool to measure tumor area in mm^2. The area was then multiplied by the section thickness (10 μm section, 10 sections/HE stain) to achieve a section volume measurement. Volumes of all sections were added to calculate the total volume of each tumor. Tumor volumes for five/six animals of every group were measured.

The next test has as its system C6 glioma cell cultures. As to the kind of experiment: Ki-67 immunoreactivity and proliferation-index in vitro. The format is cell-based, rat. The note with it: 30 μM pio, 2 d and 5 d. On the procedure:
C6 glioma cell cultures were treated with pio or vehicle for 2 d and 5 d and fixed in 4% paraformaldehyde, rinsed in TBS and incubated with rabbit anti-Ki-67 (1:200 dilution) at 4° C. overnight and processed as described above. Counterstaining was carried out with propidium iodide (P1; 1:40; Sigma, St. Louis, Mo., USA) or DAPI-staining (1:500 in PBS). For determination of the proliferation-index, Ki-67 positive cells in pio and vehicle treated cells and animals were counted, the percentage of Ki-67 positive cells in 1×10^3 tumor cells (P1 staining used in the in vitro experiments—not shown; DAPI stain used in the in vivo experiments) calculated and statistically compared. The percentage of cleaved caspase-3 positive cells was assessed by counting the immunopositive cells in 1×10^3 tumor (DAPI stain) cells and statistically compared.

Turning to `CCc1ccc(CCOc2ccc(CC3SC(=O)NC3=O)cc2)nc1` (stereo not shown) [pioglitazone, 5-[4-[2-(5-ethylpyridin-2-yl)ethoxyl]benzyl]thiazolidine-2,4-dione], in the test with MMP-9 (tumor margins and surrounding healthy brain tissue), the “MMP-9 positive staining (immunoreactivity)” value is listed as “reduced MMP-9 positive staining”. Moreover, the “MMP-9 expression (western blot)” value with MMP-9 (whole-hemisphere lysates) was “almost completely suppressed”. In addition, the “reduction of MMP-9 expression (densitometry)” value in the test with MMP-9 (whole-hemisphere lysates) is on record as 81%. The “tumor volume compared to vehicle, in words” value in test [1] (intracerebral, 3 and 6 days) was “no significant differences”; in test [1] (intracerebral, 9, 14 and 21 days), “decreased significantly”. The “reduction of tumor volume compared to vehicle” value in test [1] (intracerebral, pio 20 μM via osmotic pump) is reported as 83%; in test [1] (oral treatment (in chow)) it was 77%; in test [1] (oral treatment (in chow), listed as pio), 76.9%. Moreover, the “histological evaluation of tumor margins and invasiveness” value in test [1] (pio treated in vivo gliomas) is “more defined tumor margins and decreased invasiveness”. Moreover, in the test on C6 glioma cell cultures, the “number of Ki-67 immunopositive cells compared to vehicle” value is “reduced the number of Ki-67 immunopositive cells”.
